Measured values: paper PMC7730205, “Different Sensitivity of Control and MICU1- and MICU2-Ablated Trypanosoma cruzi Mitochondrial Calcium Uniporter Complex to Ruthenium-Based Inhibitors” (International Journal of Molecular Sciences, 2020)

Tests used:
T. cruzi epimastigotes = assay: Epimastigote growth in LIT medium; assay type: cell-based, Trypanosoma cruzi; conditions: 1 µM, 5 µM and 10 µM
Method: We analyzed the growth rate of epimastigotes in LIT medium at different Ru265 concentrations (1 µM, 5 µM, and 10 µM). […] The presence of metabolic inhibitors affects attachment and invasion of T. cruzi trypomastigotes to mammalian cells since these are an active process which depends on the expenditure of parasite energy. Preincubation of trypomastigotes for 30 min with antimycin A, which blocks electron transport from cytochrome b to c1, decreased the ability of trypomastigotes to attach to glutaraldehyde-fixed cells (Figure 4b) and invade intact host cells (Figure 4c).
Figure 4 Effect of Ru265 on Trypanosoma cruzi. (a) Effect of Ru265 on epimastigote growth. […] After 1 h of incubation at 37 °C, the cells were washed, and the number of attached trypomastigotes was counted. […] After 4 h of incubation at 37 °C, the cells were washed, and the number of intracellular parasites was counted. […] (f) Routine respiration (initial oxygen flux values), leak respiration after the addition of 0.5 µg/mL of oligomycin A, and electron transfer system (ETS) capacity after the sequential additions of FCCP (0.2 μM each) were measured for each condition. […] (g) Representative experiment showing mitochondrial Ca^2+ uptake by intact epimastigotes in relative fluorescence units (RFU). […] (h) Changes in fluorescence (before and after ionomycin addition) from three experiments like that shown in panel (g). […]

[1] = test system: T. cruzi epimastigotes (intact, non-permeabilized); assay: Mitochondrial Ca2+ uptake in intact epimastigotes using Rhod-2 AM; assay type: cell-based, Trypanosoma cruzi
Method: Figure 4 Effect of Ru265 on Trypanosoma cruzi. (a) Effect of Ru265 on epimastigote growth. Growth of control epimastigotes in LIT medium in the presence of 1 μM, 5 μM, and 10 μM Ru265. (b) Effect of Ru265 on trypomastigote attachment. Trypomastigotes were pretreated for 30 min with 1 μM antimycin A (AA) or 10 μM Ru265 and added to glutaraldehyde-fixed Vero cells. After 1 h of incubation at 37 °C, the cells were washed, and the number of attached trypomastigotes was counted. […] (c) Effect of Ru265 on trypomastigotes infection. Trypomastigotes were pretreated for 30 min with 1 μM antimycin A or 10 μM Ru265 and added to Vero cells. After 4 h of incubation at 37 °C, the cells were washed, and the number of intracellular parasites was counted. […] (f) Routine respiration (initial oxygen flux values), leak respiration after the addition of 0.5 µg/mL of oligomycin A, and electron transfer system (ETS) capacity after the sequential additions of FCCP (0.2 μM each) were measured for each condition. […] (g) Representative experiment showing mitochondrial Ca^2+ uptake by intact epimastigotes in relative fluorescence units (RFU). […] (h) Changes in fluorescence (before and after ionomycin addition) from three experiments like that shown in panel (g). […]

N.N.N.N.N.N.N.N.[Cl][Ru+3].[N-]=[Ru][Cl] [Ru265]
Toxicity to epimastigotes (T. cruzi epimastigotes): nontoxic at the concentrations tested
Effect on growth rate of epimastigotes (T. cruzi epimastigotes; control epimastigotes): does not affect the growth rate
Amount of Ca2+ taken up by mitochondria of intact cells (Rhod-2 fluorescence) ([1]; 50 µM Ru265 for 30 min, nigericin + ionomycin, three experiments): no significant difference
Permeability in trypanosomes (inferred from lack of effect on intact cells) ([1]; intact epimastigotes): low permeability
